The source made the active and inactive calls.
How the values were obtained:
[1] = human cervical cancer cell viability loss – 24 h, plate reader, dry powder, cytotoxicity control, dose response (AID 686928); assay type: functional, cell-based; conditions: HeLa
[2] = molecular target: T1, Trace amine-associated receptor 1 (Homo sapiens, UniProt Q96RJ0); experiment: Counterscreen for agonists of the human trace amine associated receptor 1 (hTAAR1): Fluorescence-based cell-based high throughput dose response assay to identify hTAAR1 agonist that also desensitize TAAR1 receptor response.; assay type: functional
T1 sequence (Q96RJ0 whole entry): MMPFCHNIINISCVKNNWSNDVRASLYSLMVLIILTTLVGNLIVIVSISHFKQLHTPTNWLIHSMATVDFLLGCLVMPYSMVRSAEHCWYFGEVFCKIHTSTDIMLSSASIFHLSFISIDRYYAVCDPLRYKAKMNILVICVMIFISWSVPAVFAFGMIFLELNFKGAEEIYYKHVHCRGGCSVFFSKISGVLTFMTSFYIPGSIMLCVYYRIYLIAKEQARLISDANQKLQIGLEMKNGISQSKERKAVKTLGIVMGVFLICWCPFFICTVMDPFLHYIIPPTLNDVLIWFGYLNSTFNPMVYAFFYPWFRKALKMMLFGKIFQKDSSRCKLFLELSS

[3] = molecular target: T1, Trace amine-associated receptor 1; experiment: Fluorescence-based cell-based high throughput dose response assay to identify agonists of the human trace amine associated receptor 1 (TAAR1).; assay type: functional
cells [4] = assay type: functional, cell-based
cells [5] = assay type: functional, cell-based; remark: listed apart in the source
cells [6] = assay type: functional
Albumin = Albumin (Bos taurus, UniProt P02769); experiment: Counterscreen for inhibitors of T-cell receptor (TCR)-CD3 interaction: Fluorescence-based biochemical high throughput dose response assay to identify inhibitors of T-cell receptor (TCR)-CD3 interaction using a TAMRA-labeled BSA probe.; assay type: functional
Chain of Albumin (P02769 whole entry): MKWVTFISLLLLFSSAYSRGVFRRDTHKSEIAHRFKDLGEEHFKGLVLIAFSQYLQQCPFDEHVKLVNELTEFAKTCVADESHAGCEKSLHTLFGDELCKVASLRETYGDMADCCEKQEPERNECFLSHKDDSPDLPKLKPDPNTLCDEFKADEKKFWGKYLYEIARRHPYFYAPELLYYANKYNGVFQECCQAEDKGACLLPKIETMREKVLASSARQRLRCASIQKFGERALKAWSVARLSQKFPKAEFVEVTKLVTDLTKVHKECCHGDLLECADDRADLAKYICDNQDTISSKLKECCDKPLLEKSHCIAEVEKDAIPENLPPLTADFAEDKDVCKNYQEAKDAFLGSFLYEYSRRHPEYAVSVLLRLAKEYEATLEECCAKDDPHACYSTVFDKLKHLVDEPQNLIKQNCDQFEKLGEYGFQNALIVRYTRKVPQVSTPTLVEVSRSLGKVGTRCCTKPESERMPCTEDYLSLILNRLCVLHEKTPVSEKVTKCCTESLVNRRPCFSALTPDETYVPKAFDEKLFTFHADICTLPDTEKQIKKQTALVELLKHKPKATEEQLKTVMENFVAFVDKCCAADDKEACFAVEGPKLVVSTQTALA

[7] = NIH-3T3 fibroblast cytotoxicity, dose response, cytotoxicity control, cell-based, fluorescence, Alamar Blue, secondary assay (AID 2327); assay type: functional;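 further: NIH-3T3 mouse fibroblasts cultured with fluconazole at 8 µg/mL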
[8] = Vero E6 cell cytotoxicity, dose response, cytotoxicity control for non-replicating M. tuberculosis project, secondary assay (AID 492998); assay type: functional, VeroE6; conditions: Vero C1008
[9] = HepG2 cell cytotoxicity, dose response, cytotoxicity control for non-replicating M. tuberculosis project (AID 489018); assay type: functional; conditions: Mycobacterium tuberculosis
[10] = fluconazole-exposed Candida albicans growth modulators – fluorescence, retest, confirmation (AID 2467); assay type: functional, cell-based
[11] = THP-1 cell cytotoxicity, dose response, cytotoxicity control for non-replicating M. tuberculosis project (AID 489025); assay type: functional
[12] = viability of HCT116 lacking mutant beta-catenin – cell-based, human colon tumor, dose response (AID 1045); assay type: functional;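 further: HCT116 colon tumor cells with beta catenin knocked out; cells exposed to compound for 60 hours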
[13] = viability loss of HPDE-C7K cells – cell-based, fluorescence, HTS, primary screen (AID 431); assay type: functional; conditions: Homo sapiens
[14] = HPDE-C7 pancreatic duct cell viability loss – fluorescence, HTS (AID 430); assay type: functional, cell-based; conditions: Homo sapiens
[15] = viability of PTEN-deleted HCT116 cells – cell-based, HCT116 PTEN knockout, dose response (AID 1047); assay type: functional;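 further: HCT116 colon tumor cells with PTEN knocked out; cells exposed to compound for 60 hours before readout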
[16] = NIH3T3 cell viability loss – ATP luminescence, mouse fibroblasts, counter-screen, dose response (AID 2010); assay type: functional, cell-based;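 further: cells exposed to compound for about 90 hours before reading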
[17] = Trypanosoma cruzi growth suppression in host cells – NIH3T3 host cells, beta-gal luminescence, confirmation (AID 2044); assay type: functional, cell-based;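 further: intracellular parasites grown in NIH/3T3 mouse fibroblasts as host cells; luminescent beta-galactosidase reporter signal from transgenic T. cruzi replicating inside host cells; inhibitors lower the luminescence signal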
Streptokinase A = molecular target: T2, Streptokinase A (Streptococcus pyogenes serotype M1, UniProt P10520); experiment: viability-normalized secreted streptokinase activity reduction – plasminogen activation absorbance, OD405, dose response (AID 1914); assay type: functional, Streptococcus pyogenes M1 GAS;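 further: secreted streptokinase activity via plasminogen activation per viability signal from cell pellet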
T2 sequence (P10520 whole entry): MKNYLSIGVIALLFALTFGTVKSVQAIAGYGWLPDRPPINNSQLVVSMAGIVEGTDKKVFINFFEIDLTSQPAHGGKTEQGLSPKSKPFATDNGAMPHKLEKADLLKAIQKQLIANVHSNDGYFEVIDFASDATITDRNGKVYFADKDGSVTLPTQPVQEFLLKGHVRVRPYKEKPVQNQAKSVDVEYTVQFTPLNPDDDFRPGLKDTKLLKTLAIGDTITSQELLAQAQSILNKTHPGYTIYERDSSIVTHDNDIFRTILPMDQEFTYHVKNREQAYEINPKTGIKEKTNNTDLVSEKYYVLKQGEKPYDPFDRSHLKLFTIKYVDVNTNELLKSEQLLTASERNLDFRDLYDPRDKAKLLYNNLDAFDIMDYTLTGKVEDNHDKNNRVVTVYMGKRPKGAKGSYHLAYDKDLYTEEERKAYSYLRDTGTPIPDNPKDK

Streptococcus = experiment: GAS UMAA2166 growth inhibition – luminescence, BacTiterGlo, counter-screen for streptokinase expression inhibitor project, dose response (AID 1915); assay type: functional, organism-based;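 further: potency for reduction of bacterial viability or growth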
INS1 = experiment: INS-1E survival protection against cytokine death – cell-based, luminescence, retest, dose response (AID 449756); assay type: functional; conditions: Rattus norvegicus;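 further: cell death triggered by IL-1 beta plus TNF-alpha plus IFN-gamma mixture; protective hits raise ATP signal compared with cytokine alone wells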
[18] = tested on: Streptococcus sp. 'group A'; experiment: Streptococcus pyogenes SK(-)GAS viability under kanamycin – luminescence, BacTiterGlo, confirmation, counter-screen for streptokinase expression inhibitor project, dose response (AID 1900); assay type: functional, organism-based
Genome polyprotein = Genome polyprotein (dengue virus type 2, UniProt P29990); experiment: flavivirus cap methylation enzyme inhibition – biochemical, confirmation dose response, primary screen (AID 588689); assay type: functional
Chain of Genome polyprotein (P29990 2492-3391 limits assumed): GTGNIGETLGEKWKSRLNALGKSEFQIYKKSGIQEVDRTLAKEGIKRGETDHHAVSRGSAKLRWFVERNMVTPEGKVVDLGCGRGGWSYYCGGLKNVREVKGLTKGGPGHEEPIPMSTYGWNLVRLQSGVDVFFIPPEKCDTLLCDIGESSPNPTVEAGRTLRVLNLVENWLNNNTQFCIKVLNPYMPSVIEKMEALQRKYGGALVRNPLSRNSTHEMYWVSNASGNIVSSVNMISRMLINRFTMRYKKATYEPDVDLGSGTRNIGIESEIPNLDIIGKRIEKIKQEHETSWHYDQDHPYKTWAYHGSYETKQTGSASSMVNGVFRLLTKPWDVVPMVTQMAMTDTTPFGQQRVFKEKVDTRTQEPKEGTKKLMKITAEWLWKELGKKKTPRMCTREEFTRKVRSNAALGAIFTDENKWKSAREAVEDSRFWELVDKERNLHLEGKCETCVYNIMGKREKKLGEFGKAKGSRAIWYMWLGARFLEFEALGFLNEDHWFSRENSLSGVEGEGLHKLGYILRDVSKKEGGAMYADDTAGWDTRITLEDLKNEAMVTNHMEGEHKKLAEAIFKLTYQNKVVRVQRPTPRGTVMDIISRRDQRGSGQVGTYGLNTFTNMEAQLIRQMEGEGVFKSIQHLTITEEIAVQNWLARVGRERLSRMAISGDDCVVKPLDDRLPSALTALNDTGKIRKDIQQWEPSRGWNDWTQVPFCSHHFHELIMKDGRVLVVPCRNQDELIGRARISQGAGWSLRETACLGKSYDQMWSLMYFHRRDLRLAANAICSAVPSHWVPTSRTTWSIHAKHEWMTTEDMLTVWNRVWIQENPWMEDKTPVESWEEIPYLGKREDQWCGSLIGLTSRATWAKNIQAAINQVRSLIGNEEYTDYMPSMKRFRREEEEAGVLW

[19] = Fluorescence-based cell-based high throughput dose response assay for inhibitors of the interaction of nucleotide-binding oligomerization domain containing 2 (NOD2) and the receptor-interacting serine-threonine kinase 2 (RIPK2).; assay type: functional; conditions: Homo sapiens
Paired box protein Pax-8 = Paired box protein Pax-8 (Homo sapiens, UniProt Q06710); experiment: PAX8 transcriptional activity inhibition in RMG-I – RMG-I cells, luciferase, cherry-pick, dose response (AID 687027); assay type: functional, cell-based;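 further: luciferase reporter driven by Pax8 target thyroperoxidase promoter measured by SteadyGlo luminescence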
Chain of Paired box protein Pax-8 (Q06710 whole entry): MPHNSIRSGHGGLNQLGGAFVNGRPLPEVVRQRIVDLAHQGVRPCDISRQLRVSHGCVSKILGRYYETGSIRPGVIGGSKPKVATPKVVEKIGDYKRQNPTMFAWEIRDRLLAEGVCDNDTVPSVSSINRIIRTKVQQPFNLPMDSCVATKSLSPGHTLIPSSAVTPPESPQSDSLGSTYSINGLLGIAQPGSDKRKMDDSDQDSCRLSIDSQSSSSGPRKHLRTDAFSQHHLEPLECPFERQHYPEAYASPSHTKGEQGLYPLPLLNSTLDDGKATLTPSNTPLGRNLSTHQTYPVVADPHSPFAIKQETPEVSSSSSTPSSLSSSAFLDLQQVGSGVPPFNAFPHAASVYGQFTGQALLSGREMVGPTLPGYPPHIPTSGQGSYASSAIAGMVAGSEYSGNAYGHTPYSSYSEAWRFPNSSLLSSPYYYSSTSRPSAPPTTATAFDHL

Beta Lactamase [20] = molecular target: T3, Beta Lactamase (Pseudomonas aeruginosa, UniProt Q932Y6); experiment: BLA reporter interference, concentration series – BLA reporter cells, FRET fluorescence, artefact control for NOD2-RIPK2 interaction inhibitor project, dose response (AID 651552); assay type: functional, cell-based
T3 sequence (Q932Y6 whole entry): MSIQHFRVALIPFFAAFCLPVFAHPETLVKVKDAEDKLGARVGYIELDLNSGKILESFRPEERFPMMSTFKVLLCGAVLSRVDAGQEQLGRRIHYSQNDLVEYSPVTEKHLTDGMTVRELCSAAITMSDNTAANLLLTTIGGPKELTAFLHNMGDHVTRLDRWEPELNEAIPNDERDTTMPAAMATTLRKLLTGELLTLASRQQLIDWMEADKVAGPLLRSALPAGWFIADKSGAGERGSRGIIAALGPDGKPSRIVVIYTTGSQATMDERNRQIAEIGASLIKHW

Vero = experiment: viability of Vero cells under compound – cytotoxicity control for flavivirus capping enzyme inhibitors (AID 588742); assay type: functional; conditions: Chlorocebus sabaeus
[21] = molecular target: Heat shock protein HSP 90-alpha (Homo sapiens, UniProt P07900); assay type: functional, organism-based
[22] = viability loss in THP-1 monocytes – THP-1 cells, cytotoxicity control for Vif-APOBEC3G degradation inhibitor project, dose response (AID 1117359); assay type: functional; conditions: THP-1
[23] = general cell-killing toxicity readout – plate reader, dry powder samples, cytotoxicity control for PAX8 inhibitor project, dose response (AID 743021); assay type: functional, cell-based
Beta Lactamase [24] = molecular target: T3, Beta Lactamase; experiment: BLA reporter interference, concentration series – BLA reporter cells, FRET fluorescence, artefact control for TLR9-MyD88 binding inhibitor project, dose response (AID 588341); assay type: cell-based;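 further: cell based assay in CHO-K1 cells stably expressing beta-lactamase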
[25] = molecular target: Glucose-6-phosphate 1-dehydrogenase (Homo sapiens, UniProt P11413); experiment: inhibition of Homo sapiens G6PD, dose series – biochemical, fluorescence, selectivity assay for P. falciparum G6PD inhibitor project, dose response (AID 504792); assay type: functional
Chain of Glucose-6-phosphate 1-dehydrogenase (P11413 whole entry, the tested form may be a part): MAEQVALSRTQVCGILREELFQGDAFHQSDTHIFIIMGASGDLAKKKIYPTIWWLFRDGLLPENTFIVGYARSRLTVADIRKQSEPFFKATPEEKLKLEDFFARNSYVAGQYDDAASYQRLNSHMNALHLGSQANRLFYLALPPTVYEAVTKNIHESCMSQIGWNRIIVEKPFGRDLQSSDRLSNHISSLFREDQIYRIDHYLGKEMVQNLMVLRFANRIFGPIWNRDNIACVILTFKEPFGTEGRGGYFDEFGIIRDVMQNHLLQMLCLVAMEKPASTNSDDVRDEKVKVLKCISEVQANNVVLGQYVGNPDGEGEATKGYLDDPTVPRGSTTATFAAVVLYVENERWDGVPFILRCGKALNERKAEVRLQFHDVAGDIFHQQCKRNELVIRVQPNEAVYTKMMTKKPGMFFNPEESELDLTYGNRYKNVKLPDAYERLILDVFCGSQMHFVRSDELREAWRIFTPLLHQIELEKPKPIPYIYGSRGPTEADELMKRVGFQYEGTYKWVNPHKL

CHO = CHO cell viability loss, potency – luminescence, cytotoxicity control for TLR9-MyD88 binding inhibitor project, dose response (AID 588339); assay type: functional, cell-based, hamster; conditions: Cricetulus griseus;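 further: CHO cells stably coexpressing TLR9 and MyD88 fusions from primary screen; compound exposure lasted 48 hours before viability readout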
Beta-galactosidase = Beta-galactosidase (Escherichia coli, UniProt Q8VNN2); experiment: detection-enzyme interference by beta-gal modulators – biochemical, E. coli enzyme, set 3, artefact control for CCR6 antagonist project, dose response (AID 504712); assay type: functional
Chain of Beta-galactosidase (Q8VNN2 whole entry): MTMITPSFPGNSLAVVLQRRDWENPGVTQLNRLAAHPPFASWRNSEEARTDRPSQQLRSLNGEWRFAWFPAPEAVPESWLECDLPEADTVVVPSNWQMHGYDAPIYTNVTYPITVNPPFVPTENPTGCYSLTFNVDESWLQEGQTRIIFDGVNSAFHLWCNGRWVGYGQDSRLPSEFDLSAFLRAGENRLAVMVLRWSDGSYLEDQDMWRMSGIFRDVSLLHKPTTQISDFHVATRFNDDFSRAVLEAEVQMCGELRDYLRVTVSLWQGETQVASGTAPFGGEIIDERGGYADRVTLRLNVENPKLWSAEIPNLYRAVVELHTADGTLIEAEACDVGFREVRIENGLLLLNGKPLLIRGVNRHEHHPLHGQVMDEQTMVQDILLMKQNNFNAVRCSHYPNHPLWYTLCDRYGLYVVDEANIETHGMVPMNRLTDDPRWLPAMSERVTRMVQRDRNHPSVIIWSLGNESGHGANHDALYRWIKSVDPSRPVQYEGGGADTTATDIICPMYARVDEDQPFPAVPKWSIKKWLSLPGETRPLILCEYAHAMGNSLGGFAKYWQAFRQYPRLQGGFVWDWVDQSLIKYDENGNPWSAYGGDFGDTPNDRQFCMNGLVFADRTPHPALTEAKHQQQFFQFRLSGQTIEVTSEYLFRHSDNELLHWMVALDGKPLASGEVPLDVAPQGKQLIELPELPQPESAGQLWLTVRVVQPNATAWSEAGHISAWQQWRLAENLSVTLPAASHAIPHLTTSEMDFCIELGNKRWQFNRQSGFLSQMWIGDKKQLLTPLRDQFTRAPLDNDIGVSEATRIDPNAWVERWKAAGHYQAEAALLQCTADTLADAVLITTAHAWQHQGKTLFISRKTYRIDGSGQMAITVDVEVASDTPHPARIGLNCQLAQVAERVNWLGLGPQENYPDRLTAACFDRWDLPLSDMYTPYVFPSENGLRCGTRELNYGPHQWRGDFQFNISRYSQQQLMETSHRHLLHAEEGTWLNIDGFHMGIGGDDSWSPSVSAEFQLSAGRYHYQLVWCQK

Protein Tat = molecular target: T4, Protein Tat (Human immunodeficiency virus type 1 group M subtype B (isolate HXB2)(HIV-1), UniProt P04608); assay type: functional;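 further: tat binding to TAR RNA read out by fluorescence polarization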
T4 sequence (P04608 whole entry): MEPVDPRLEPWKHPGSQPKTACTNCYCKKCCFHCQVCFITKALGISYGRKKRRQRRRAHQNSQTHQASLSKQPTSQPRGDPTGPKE

Cc1cc2cc3c(NC(=O)c4ccco4)nn(C)c3nc2cc1C
AC50 [1]: 147 µM (active)

O=C1C(=O)N(Cc2cccc(Cl)c2)c2ccccc21
AC50 [1]: 124 µM (active)

CCCCC(CC)CNC(=O)C1C2C=CC(C2)C1C(=O)O (stereo unspecified)
IC50 [2]: > 29.9 µM (inactive) | EC50 [3]: > 29.9 µM (inactive) | EC50 (cells [4]): > 29.9 µM (inactive) | IC50 (cells [5]): > 29.9 µM (inactive)

COc1ccc(C(=O)NNC(=S)NC(=O)c2cccc([N+](=O)[O-])c2)cc1
IC50 (cells [6]): 18.9 µM (active) | IC50 (Albumin): > 94.1 µM (inactive) | EC50 [7]: > 160 µM (inactive) | CC50 [8]: 17.9 µM (active) | CC50 [9]: > 20 µM (active) | EC50 [10]: 2.63 µM (active) | CC50 [11]: 19.3 µM (active)

O=C(CCN1CCC(c2ccccc2)C1)c1cccs1 (stereo unspecified)
EC50 [12]: 29.3 µM (active) | EC50 [13]: > 20 µM (not active) | IC50 [2]: 1.49 µM (active) | EC50 [3]: 0.157 µM (active) | EC50 (cells [4]): > 29.9 µM (inactive) | EC50 [14]: > 20 µM (not active) | IC50 (cells [5]): > 29.9 µM (inactive) | EC50 [15]: 34.1 µM (active)

C/C(=N\NC(=O)c1nnn(-c2nonc2N)c1CN(C)c1ccccc1)c1ccccc1O
EC50 [16]: 5.57 µM (active) | IC50 (Albumin): > 94.1 µM (inactive) | EC50 [17]: 403 nM (active) | EC50 (Streptokinase A): > 150 µM (not active) | EC50 (Streptococcus): 5.74 µM (active) | AC50 (INS1): 2.15 µM (active) | EC50 [18]: 5.37 µM (active)

CC1=C(O)C(=O)C=C2C1=CC=C1C2(C)CCC2(C)C3CC(C)(C(=O)O)CCC3(C)CCC12C (stereo unspecified)
IC50 (Genome polyprotein): 19.7 µM (active) | IC50 [19]: 205 nM (active) | AC50 (Paired box protein Pax-8): 2.41 µM (active) | IC50 (Beta Lactamase [20]): 38.1 µM (inactive) | CC50 (Vero): 1.43 µM (active) | AC50 [21]: 1.41 µM (active) | CC50 [22]: 1.01 µM (active) | AC50 [23]: 26.1 µM (active) | IC50 (Beta Lactamase [24]): 21.4 µM (inactive) | IC50 [25]: > 80 µM (inactive) | IC50 (CHO): 619 nM (active) | IC50 (Beta-galactosidase): > 66.6 µM (inactive) | IC50 (Protein Tat): > 100 µM (active)

— ChEMBL document CHEMBL1201862, “PubChem BioAssay data set” (2004)
